As usually defined, the IC50 is the concentration that gives 50% inhibition.

Common to all, as to assay type: cell-based, human
The test system of one assay is A549. The assay is described as follows: MTT cytotoxicity assay, monolayer culture. The conditions noted are these: exposure time 96 h, means ± SDs. The text has this: (§1) A549 (non‐small cell lung carcinoma), SW480 and HCT‐116 (both colon carcinoma) were kindly provided by Brigitte Marian, Institute of Cancer Research, Department of Medicine I, Medical University of Vienna, Austria. The cell line CH1/PA‐1 (ovarian teratocarcinoma) was kindly provided by Lloyd R. Kelland (CRC Centre for Cancer Therapeutics, Institute of Cancer Research, Sutton, UK). All cell culture media (including supplements) and reagents were obtained from Sigma–Aldrich, and all plasticware from StarLab, unless indicated otherwise.
Background: Tetrazolium dyes change colour on reduction, which living cells bring about.

Assay [1] deals with CH1/PA‐1. Nature of the assay: MTT cytotoxicity assay, monolayer culture. The conditions noted are these: CH1/PA‐1, MTT assay, exposure time 96 h, means ± SDs.
Text: as §1

Assay [2] relates to SW480. Nature of the assay: MTT cytotoxicity assay, monolayer culture. The following applies: for IC50: SW480, MTT assay, exposure time 96 h, means ± SDs.
Text: as §1

Assay [3] concerns CH1/PA‐1. The assay is described as follows: Cell cycle distribution, flow cytometry with propidium iodide. The following applies: for Cell cycle distribution G1, % / Cell cycle distribution G2/M, % / Cell cycle distribution S, %: 24 h, mean ± SD; for Relative change in cell cycle distribution G1, % / Relative change in cell cycle distribution G2/M, % / Relative change in cell cycle distribution S, %: difference to untreated control. The procedure:
(§2) The influence of two ligands, as well as seven complexes on cell cycle distribution was tested in two of the cancer cell lines (SW480, CH1/PA‐1) by means of flow cytometry. The cell cycle distribution (G1, S, G2/M phase in %; Table S37) was investigated upon DNA staining with propidium iodide.
(§3) CH1/PA‐1 and SW480 cells were harvested by trypsinization, 8×10^4 and 1.2×10^5 cells per well were seeded into 12‐well plates, respectively. The cells were allowed to attach and resume proliferation for 24 h after the seeding. […] After continuous exposure for 24 h at 37 °C and under 5 % CO2, the cells were harvested by trypsinization and centrifuged at 300 g for 3 min. The cells were washed with PBS (1 mL) and resuspended in propidium iodine (PI) containing HSF buffer (600 μL; 0.1 % Triton X‐100, 0.1 % sodium citrate, 50 μg mL^−1 PI in PBS). After incubation overnight at 4 °C in the dark, 5×10^3 cells were measured by flow cytometry with a Millipore Guava easyCyte 8HT instrument (Luminex, USA). Data were evaluated by means of FlowJo software (Tree Star) using Watson Pragmatic algorithms.60 The fitting of the curve was chosen to keep the root mean square error between 1.0 and 2.0, alongside with good fitting visual model.
(A flow cytometer gives signals particle by particle.)

Assay [4] deals with SW480. Described as above. The following applies: for Cell cycle distribution G1, % / Cell cycle distribution G2/M, % / Cell cycle distribution S, %: 24 h, mean ± SD; for Relative change in cell cycle distribution G1, % / Relative change in cell cycle distribution G2/M, % / Relative change in cell cycle distribution S, %: difference to untreated control. The procedure: as §2, §3

For the compound `Cc1c(O)c(=S)ccn1-c1ccccc1` [Compound 2 b, 3‐hydroxy‐2‐methyl‐1‐phenylpyridine‐4(1H)‐thione], the values for the half-maximal inhibitory concentration (IC50) with A549 (Homo sapiens), with CH1/PA‐1 [1] (Homo sapiens) and with SW480 [2] (Homo sapiens) were 1600 ± 1200 nM, 520 ± 50 nM and 520 ± 30 nM, respectively.
In the case of `Cc1c(O)c(=S)ccn1Cc1ccccc1` [Compound 2 c, 3‐hydroxy‐2‐methyl‐1‐benzylpyridine‐4(1H)‐thione], the IC50 in the assay on A549 (Homo sapiens) worked out at 790 ± 120 nM; in the assay with SW480 [2] (Homo sapiens), 280 ± 40 nM. Moreover, the “Cell cycle distribution G1, %” value is given as 43 ± 16% in the assay on CH1/PA‐1 [3] (CH1/PA-1, 2.5 µM); 31 ± 5% in the assay on CH1/PA‐1 [3] (CH1/PA-1, 5 µM); 31 ± 6% with CH1/PA‐1 [3] (CH1/PA-1, 10 µM); 30 ± 1% with SW480 [4] (SW480, 5 µM); 27 ± 3% in the assay with SW480 [4] (SW480, 10 µM); 34 ± 5% in the assay on SW480 [4] (SW480, 20 µM). The “Cell cycle distribution G2/M, %” value in the assay on CH1/PA‐1 [3] (CH1/PA-1, 2.5 µM) was found to be 19 ± 9%; with CH1/PA‐1 [3] (CH1/PA-1, 5 µM) it was 32 ± 4%; in the assay with CH1/PA‐1 [3] (CH1/PA-1, 10 µM), 26 ± 10%; with SW480 [4] (SW480, 5 µM), 31 ± 3%; in the assay on SW480 [4] (SW480, 10 µM), 27 ± 3%; in the assay with SW480 [4] (SW480, 20 µM), 17 ± 3%. The “Cell cycle distribution S, %” value is 37 ± 5% in the assay on CH1/PA‐1 [3] (CH1/PA-1, 2.5 µM); 37 ± 2% with CH1/PA‐1 [3] (CH1/PA-1, 5 µM); 43 ± 8% with CH1/PA‐1 [3] (CH1/PA-1, 10 µM); 39 ± 2% in the assay on SW480 [4] (SW480, 5 µM); 45 ± 2% with SW480 [4] (SW480, 10 µM); 49 ± 1% with SW480 [4] (SW480, 20 µM). Besides, the “Relative change in cell cycle distribution G1, %” value in the assay on CH1/PA‐1 [3] (CH1/PA-1, 2.5 µM) is listed as 3%; with CH1/PA‐1 [3] (CH1/PA-1, 5 µM), -9%; with CH1/PA‐1 [3] (CH1/PA-1, 10 µM), -9%; in the assay on SW480 [4] (SW480, 5 µM), -18%; in the assay on SW480 [4] (SW480, 10 µM) it was -21%; with SW480 [4] (SW480, 20 µM), -14%. Moreover, the “Relative change in cell cycle distribution G2/M, %” value is -5% in the assay on CH1/PA‐1 [3] (CH1/PA-1, 2.5 µM); 8% in the assay with CH1/PA‐1 [3] (CH1/PA-1, 5 µM); 2% with CH1/PA‐1 [3] (CH1/PA-1, 10 µM); 12% in the assay with SW480 [4] (SW480, 5 µM); 8% in the assay with SW480 [4] (SW480, 10 µM); -2% in the assay on SW480 [4] (SW480, 20 µM). For the same compound, the “Relative change in cell cycle distribution S, %” value worked out at 1% with CH1/PA‐1 [3] (CH1/PA-1, 2.5 µM); 1% in the assay on CH1/PA‐1 [3] (CH1/PA-1, 5 µM); 7% in the assay with CH1/PA‐1 [3] (CH1/PA-1, 10 µM); 6% with SW480 [4] (SW480, 5 µM); 12% in the assay on SW480 [4] (SW480, 10 µM); 16% in the assay on SW480 [4] (SW480, 20 µM). The “effect on cell cycle distribution, in words” value in the assay on CH1/PA‐1 [3] (CH1/PA‐1 cells) is “little effect”. In addition, the “decrease in G1 phase” value with CH1/PA‐1 [3] (CH1/PA‐1 cells, 10 μM) was found to be 9%. Besides, in the assay on SW480 [4] (SW480 cells, 2.5 μM), the “decrease in G1” value is listed as 18%.
Regarding `Cc1c(O)c(=S)ccn1-c1cccc2ccccc12` [Compound 2 d, 3‐hydroxy‐2‐methyl‐1‐(naphthalene‐1‐yl)pyridine‐4(1H)‐thione], the values for the IC50 in the assay with A549 (Homo sapiens), in the assay on CH1/PA‐1 [1] (Homo sapiens) and with SW480 [2] (Homo sapiens) were 1600 ± 100 nM, 620 ± 80 nM and 350 ± 20 nM, respectively.
On to `Cc1c([O-])c(=S)ccn1-c1ccccc1.Cc1ccc(C(C)C)cc1.[Cl-].[Ru+2]` [Compound 3 b, Chlorido[2‐methyl‐3‐(oxo‐κO)‐1‐phenylpyridine‐4(1H)‐thionato‐κS](η^6‐p‐cymene)ruthenium(II)], for which the values for the IC50 in the assay on A549, with CH1/PA‐1 [1] and in the assay with SW480 [2] were 2400 ± 800 nM, 940 ± 80 nM and 2800 ± 100 nM, respectively.
In the case of `Cc1c([O-])c(=S)ccn1-c1cccc2ccccc12.Cc1ccc(C(C)C)cc1.[Cl-].[Ru+2]` [Compound 3 d, Chlorido[2‐methyl‐1‐(naphthalene‐1‐yl)‐3‐(oxo‐κO)‐pyridine‐4(1H)‐thionato‐κS](η^6‐p‐cymene)ruthenium(II)], the values for the IC50 in the assay with A549, in the assay with CH1/PA‐1 [1] and in the assay on SW480 [2] were 2100 ± 300 nM, 1600 ± 300 nM and 4000 ± 300 nM, respectively.
Turning to `Cc1c([O-])c(=S)ccn1C.Cc1ccc(C(C)C)cc1.[Cl-].[Os+2]` [Compound 4 a, [Chlorido[1,2‐dimethyl‐3‐(oxo‐κO)‐pyridine‐4(1H)‐thionato‐κS](η^6‐p‐cymene)osmium(II)]], the IC50 in the assay on A549 was more than 200000 nM; in the assay on CH1/PA‐1 [1], 112000 ± 27000 nM; with SW480 [2] it was more than 200000 nM.
Turning to `Cc1c([O-])c(=S)ccn1-c1cccc2ccccc12.Cc1ccc(C(C)C)cc1.[Cl-].[Os+2]` [Compound 4 d, Chlorido[2‐methyl‐1‐(naphthalene‐1‐yl)‐3‐(oxo‐κO)‐pyridine‐4(1H)‐thionato‐κS](η^6‐p‐cymene)osmium(II)], the IC50 in the assay with A549 is 2400 ± 300 nM; in the assay on CH1/PA‐1 [1], 1300 ± 300 nM; with SW480 [2], 7700 ± 300 nM. The “IC50 relative to the osmium thiomaltol complex” value in the assay on SW480 [2] (SW480 cells) is “four times higher”.
For `COc1cc([C@@H]2c3cc4c(cc3[C@@H](O[C@@H]3O[C@@H]5CO[C@@H](C)O[C@H]5[C@H](O)[C@H]3O)[C@H]3COC(=O)[C@H]23)OCO4)cc(OC)c1O` [Etoposide, reference compound], the “Cell cycle distribution G1, %” value in the assay with CH1/PA‐1 [3] (CH1/PA-1, 0.25 µM) was determined as 8 ± 5%; in the assay with CH1/PA‐1 [3] (CH1/PA-1, 0.5 µM), 4 ± 1%; with CH1/PA‐1 [3] (CH1/PA-1, 1 µM), 3 ± 3%; in the assay with SW480 [4] (SW480, 0.25 µM), 9 ± 2%; with SW480 [4] (SW480, 0.5 µM) it was 3 ± 1%; in the assay with SW480 [4] (SW480, 1 µM), 6 ± 4%. Moreover, the “Cell cycle distribution S, %” value is 15 ± 4% in the assay on CH1/PA‐1 [3] (CH1/PA-1, 0.25 µM); 10 ± 3% with CH1/PA‐1 [3] (CH1/PA-1, 0.5 µM); 10 ± 5% with CH1/PA‐1 [3] (CH1/PA-1, 1 µM); 26 ± 4% with SW480 [4] (SW480, 0.25 µM); 19 ± 7% with SW480 [4] (SW480, 0.5 µM); 30 ± 15% in the assay on SW480 [4] (SW480, 1 µM). The “Relative change in cell cycle distribution G1, %” value in the assay on CH1/PA‐1 [3] (CH1/PA-1, 0.25 µM) is reported as -32%; in the assay on CH1/PA‐1 [3] (CH1/PA-1, 0.5 µM) it was -36%; with CH1/PA‐1 [3] (CH1/PA-1, 1 µM), -37%; in the assay on SW480 [4] (SW480, 0.25 µM), -39%; in the assay with SW480 [4] (SW480, 0.5 µM) it was -45%; in the assay with SW480 [4] (SW480, 1 µM), -42%. The “Relative change in cell cycle distribution G2/M, %” value came out at 53% in the assay with CH1/PA‐1 [3] (CH1/PA-1, 0.25 µM); 61% in the assay on CH1/PA‐1 [3] (CH1/PA-1, 0.5 µM); 63% in the assay with CH1/PA‐1 [3] (CH1/PA-1, 1 µM); 46% with SW480 [4] (SW480, 0.25 µM); 59% with SW480 [4] (SW480, 0.5 µM); 46% in the assay on SW480 [4] (SW480, 1 µM). The “Relative change in cell cycle distribution S, %” value with CH1/PA‐1 [3] (CH1/PA-1, 0.25 µM) is -21%; in the assay on SW480 [4] (SW480, 0.25 µM), -7%; in the assay with SW480 [4] (SW480, 0.5 µM), -14%; with SW480 [4] (SW480, 1 µM) it was -3%. Moreover, the “Cell cycle distribution G2/M, %” value with CH1/PA‐1 [3] (CH1/PA-1, 0.5 µM) is given as 85 ± 5%; in the assay on CH1/PA‐1 [3] (CH1/PA-1, 1 µM), 87 ± 6%; in the assay on SW480 [4] (SW480, 0.25 µM) it was 65 ± 10%; with SW480 [4] (SW480, 0.5 µM) it was 78 ± 6%; with SW480 [4] (SW480, 1 µM) it was 65 ± 10%.
On to “Chlorido[1‐(naphthalene‐1‐yl)‐2‐methyl‐3‐oxo‐κO‐pyridine‐4(1H)‐thionato‐κS](η^5‐1,2,3,4,5‐pentamethylcyclopentadienyl)iridium(III) [Compound 6 d]”, for which the IC50 with A549 was determined as 2000 ± 400 nM; in the assay with CH1/PA‐1 [1] it was 680 ± 20 nM; with SW480 [2], 800 ± 150 nM.
The corresponding values for “Chlorido[1‐phenyl‐2‐methyl‐3‐oxo‐κO‐pyridine‐4(1H)‐thionato‐κS](η^5‐1,2,3,4,5‐pentamethylcyclopentadienyl)iridium(III) [Compound 6 b]” are 2200 ± 800 nM, 820 ± 50 nM and 590 ± 80 nM.

(Values after article PMC7217150, “Synthesis, Modification, and Biological Evaluation of a Library of Novel Water‐Soluble Thiopyridone‐Based Organometallic Complexes and Their Unexpected (Biological) Behavior” (Chemistry (Weinheim an Der Bergstrasse, Germany), 2020).)
